According to patent US6844347B1, “Substituted 4-amino-2aryl-pyrimidines, their production and use and pharmaceutical preparations containing same” (Aventis Pharma Deutschland GmbH, priority 1998, dated 2005):

System: not given
Experiment: not given
Settings: not given
For `CC(C)c1cc(N2CCS(=O)(=O)CC2)nc(-c2ccc(Cl)cc2)n1` [Example 145, 2-(4-Chlorophenyl)-6-isopropyl-4-(1,1-dioxothiomorpholino)pyrimidine], the melting point was 226 °C. With `CC(C)c1cc([SH]2(=O)CCNC2)nc(-c2ccc(Cl)cc2)n1` [Example 146, 2-(4-Chlorophenyl)6-isopropyl-4-(1-oxo-1,3-thiazolidin-1-yl)pyrimidine] the melting point was 128 °C. Work on `CC[S+]([O-])CCNc1cc(C(C)C)nc(-c2ccc(Cl)cc2)n1` (stereo not drawn) [Example 147, 2-(4-Chlorophenyl)-4-((2-ethylsulfinylethyl)amino)-6-isopropylpyrimidine] yielded a melting point of 103 °C. Molecule `Cc1ccc(-c2nc(C(C)C)cc(N3CC[S+]([O-])CC3)n2)cc1` [Example 148, 6-Isopropyl-2-(4-methylphenyl)-4-(1-oxothiomorpholino)pyrimidine] has a melting point of 152 °C. For `CC(C)c1cc(N2CC[S+]([O-])CC2)nc(-c2cc(Cl)cc(Cl)c2)n1` [Example 149, 2-(3,5-dichlorophenyl)-6-isopropyl-4-(1-oxothiomorpholino)pyrimidine], the melting point was 187 °C.

Target: T1, soluble guanylate cyclase (sGC) (Bos taurus, UniProt P16068+P19687)
T1 construct: The sGC employed had been isolated from bovine lung; from tissue; host or cells: bovine lung
T1 sequence (P19687 1-691): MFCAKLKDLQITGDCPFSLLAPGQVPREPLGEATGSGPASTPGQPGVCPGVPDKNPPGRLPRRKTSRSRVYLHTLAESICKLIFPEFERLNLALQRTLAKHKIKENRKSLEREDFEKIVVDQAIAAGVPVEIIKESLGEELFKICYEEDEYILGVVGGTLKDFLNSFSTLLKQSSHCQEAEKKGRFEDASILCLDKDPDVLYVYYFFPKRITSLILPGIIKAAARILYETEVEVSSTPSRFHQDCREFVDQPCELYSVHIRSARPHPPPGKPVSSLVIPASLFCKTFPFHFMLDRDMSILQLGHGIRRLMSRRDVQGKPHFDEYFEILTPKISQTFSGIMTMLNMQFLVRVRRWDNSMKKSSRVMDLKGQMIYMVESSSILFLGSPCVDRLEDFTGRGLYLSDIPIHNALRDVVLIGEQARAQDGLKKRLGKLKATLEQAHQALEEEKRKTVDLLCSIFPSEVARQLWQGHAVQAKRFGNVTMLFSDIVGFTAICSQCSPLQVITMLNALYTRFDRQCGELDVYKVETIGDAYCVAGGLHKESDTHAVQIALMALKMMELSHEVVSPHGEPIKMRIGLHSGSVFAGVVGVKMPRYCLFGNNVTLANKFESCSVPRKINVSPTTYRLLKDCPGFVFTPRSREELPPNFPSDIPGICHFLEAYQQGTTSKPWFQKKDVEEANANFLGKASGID
T1 sequence (P16068 1-619): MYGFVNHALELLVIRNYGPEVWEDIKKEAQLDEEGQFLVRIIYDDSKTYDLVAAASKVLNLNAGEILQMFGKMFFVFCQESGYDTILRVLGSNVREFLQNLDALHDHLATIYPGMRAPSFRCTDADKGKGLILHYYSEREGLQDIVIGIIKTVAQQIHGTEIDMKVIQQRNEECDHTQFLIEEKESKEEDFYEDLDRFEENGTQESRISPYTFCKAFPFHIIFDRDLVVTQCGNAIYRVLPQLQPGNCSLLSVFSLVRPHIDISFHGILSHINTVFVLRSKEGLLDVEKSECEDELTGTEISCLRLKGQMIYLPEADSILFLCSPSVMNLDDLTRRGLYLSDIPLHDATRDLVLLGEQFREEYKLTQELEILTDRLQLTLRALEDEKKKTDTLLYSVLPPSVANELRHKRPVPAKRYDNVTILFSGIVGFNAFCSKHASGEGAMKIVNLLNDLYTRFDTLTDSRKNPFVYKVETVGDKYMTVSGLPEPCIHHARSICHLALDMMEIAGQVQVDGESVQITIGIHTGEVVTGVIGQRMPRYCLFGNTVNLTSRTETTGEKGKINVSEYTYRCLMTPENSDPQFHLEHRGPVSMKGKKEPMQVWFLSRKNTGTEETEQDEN
Experiment: Activation of soluble guanylate cyclase (cGMP enzyme immunoassay)
Assay type: biochemical
Settings: test substance 50 μM; sGC isolated from bovine lung; [cGMP]test substance/[cGMP]control (basal activity with solvent); 37° C., 15 to 20 minutes
Method: The activation of soluble guanylate cyclase (sGC), which catalyzes the conversion of guanosine triphosphate (GTP) to cyclic guanosine monophosphate (cGMP) and pyrophosphate, by the compounds according to the invention was quantified with the aid of an enzyme immunoassay (EIA) from Amersham. For this, the test substances were first incubated with sGC in microtiter plates and then the quantity of the resulting cGMP was determined.
The sGC employed had been isolated from bovine lung (see Methods in Enzymology, Volume 195, p. 377). The test solutions (100 μl per well) contained 50 mM triethanolamine (TEA) buffer (pH 7.5), 3 mM MgCl2, 3 mM reduced glutathione (GSH), 0.1 mM GTP, 1 mM 3-isobutyl-1-methylxanthine (IBMX), suitably diluted enzyme solution and the test substance or, in the control experiments, solvent. The test substances were dissolved in dimethyl sulfoxide (DMSO) and the solution was diluted with DMSO/water such that the final concentration c of test substance in the test batch was 50 μM. The DMSO concentration in the test batch was 5% (v/v). The reaction was started by addition of the sGC. The reaction mix was incubated at 37° C. for 15 to 20 minutes and then stopped by ice-cooling and addition of the stop reagent (50 mM EDTA, pH 8.0). An aliquot of 50 μl was taken and employed for the determination of the cGMP content using the acetylation protocol of the Amersham cGMP EIA kit. The absorption of the samples was measured at 450 nm (reference wavelength 620 nm) in a microtiter plate reading apparatus. The cGMP concentration was determined by means of a calibration curve, which was obtained under the same experimental conditions. The activation of the sGC by a test substance is indicated as n-fold stimulation of the basal enzyme activity which was found in the control experiments (with solvent instead of test substance) (calculated according to the formula n-fold stimulation=[cGMP]test substance/[cGMP]control).
For `COCCCNc1cc(C(C)C)nc(-c2ccc(C)cc2)n1` [Example 23], the “n-fold stimulation at c = 50 μM” value was over 8 n-fold. With `Cc1ccc(-c2nc(NC3CCC(O)CC3)cc(C(C)C)n2)cc1` (stereo not drawn) [Example 25] the “n-fold stimulation at c = 50 μM” value was 28 n-fold. For `CC(C)c1cc(N2CCCC2)nc(-c2ccc(Cl)cc2)n1.Cl` [Example 29], the “n-fold stimulation at c = 50 μM” value was over 4 n-fold. With `CC(C)c1cc(N2CCSCC2)nc(-c2ccc(Cl)cc2)n1.Cl` [Example 30] the “n-fold stimulation at c = 50 μM” value was over 4 n-fold. For `CCCCNc1cc(C(C)C)nc(-c2ccc(Cl)cc2)n1` [Example 32], the “n-fold stimulation at c = 50 μM” value was over 4 n-fold. For `CCN(CC)c1cc(C(C)C)nc(-c2ccc(Cl)cc2)n1` [Example 33], the “n-fold stimulation at c = 50 μM” value was over 16 n-fold. In the case of `CCCCN(CCCC)c1cc(C(C)C)nc(-c2ccc(Cl)cc2)n1.Cl` [Example 34], the “n-fold stimulation at c = 50 μM” value is reported as over 4 n-fold. For `CCCN(CCC)c1cc(C(C)C)nc(-c2ccc(Cl)cc2)n1.Cl` [Example 35], the “n-fold stimulation at c = 50 μM” value was over 16 n-fold. In the case of `C=CCN(CC=C)c1cc(C(C)C)nc(-c2ccc(Cl)cc2)n1` [Example 36], the “n-fold stimulation at c = 50 μM” value is reported as over 8 n-fold. For `CC(C)c1cc(N2CCCCCC2)nc(-c2ccc(Cl)cc2)n1` [Example 38], the “n-fold stimulation at c = 50 μM” value was over 8 n-fold. For `CCN(Cc1ccccc1)c1cc(C(C)C)nc(-c2ccc(Cl)cc2)n1` [Example 43], the “n-fold stimulation at c = 50 μM” value was over 4 n-fold. With `CC(C)c1cc(N2CCC(C(N)=O)CC2)nc(-c2ccc(Cl)cc2)n1` [Example 44] the “n-fold stimulation at c = 50 μM” value was over 4 n-fold. With `CC(C)c1cc(N2CCSC2)nc(-c2ccc(Cl)cc2)n1` [Example 45] the “n-fold stimulation at c = 50 μM” value was over 4 n-fold. For `CC(C)(C)c1cc(N2CCOCC2)nc(-c2ccc(Cl)cc2)n1` [Example 52], the “n-fold stimulation at c = 50 μM” value was over 8 n-fold. With `CCN(CC)c1cc(-c2ccccc2)nc(-c2ccc(Cl)cc2)n1` [Example 63] the “n-fold stimulation at c = 50 μM” value was over 4 n-fold. With `CC(C)(C)c1cc(N2CCSCC2)nc(-c2ccc(Cl)cc2)n1` [Example 66] the “n-fold stimulation at c = 50 μM” value was over 4 n-fold. With `CCCN(CCC)c1cc(-c2ccccc2)nc(-c2ccc(Cl)cc2)n1` [Example 69] the “n-fold stimulation at c = 50 μM” value was over 4 n-fold. In the case of `CC(C)c1cc(NC2CCC(O)CC2)nc(-c2cc(Cl)cc(Cl)c2)n1` (stereo not drawn) [Example 77], the “n-fold stimulation at c = 50 μM” value is reported as 30 n-fold. In the case of `CCCCNc1cc(C(C)C)nc(-c2cc(Cl)cc(Cl)c2)n1.Cl` [Example 79], the “n-fold stimulation at c = 50 μM” value is reported as over 4 n-fold. For `CCN(CC)c1cc(C(C)C)nc(-c2cc(Cl)cc(Cl)c2)n1` [Example 80], the “n-fold stimulation at c = 50 μM” value was over 16 n-fold. With `CC(C)c1cc(N2CCOCC2)nc(-c2cc(Cl)cc(Cl)c2)n1` [Example 81] the “n-fold stimulation at c = 50 μM” value was over 4 n-fold. With `CC(C)c1cc(N2CCSCC2)nc(-c2cc(Cl)cc(Cl)c2)n1` [Example 82] the “n-fold stimulation at c = 50 μM” value was over 4 n-fold. For `CCCN(CCC)c1cc(C(C)C)nc(-c2cc(Cl)cc(Cl)c2)n1` [Example 84], the “n-fold stimulation at c = 50 μM” value was over 16 n-fold. For `CCCN(CCC)c1cc(C(C)C)nc(-c2ccc(C)cc2)n1` [Example 85], the “n-fold stimulation at c = 50 μM” value was over 16 n-fold. For `CCN(CC)c1cc(C(C)C)nc(-c2ccc(C)cc2)n1.Cl` [Example 86], the “n-fold stimulation at c = 50 μM” value was over 16 n-fold. With `CCCCNc1cc(C(C)C)nc(-c2ccc(C)cc2)n1` [Example 88] the “n-fold stimulation at c = 50 μM” value was over 8 n-fold. With `Cc1ccc(-c2nc(C(C)C)cc(N3CCOCC3)n2)cc1` [Example 89] the “n-fold stimulation at c = 50 μM” value was over 8 n-fold. With `Cc1ccc(-c2nc(C(C)C)cc(N3CCSCC3)n2)cc1` [Example 90] the “n-fold stimulation at c = 50 μM” value was over 16 n-fold. With `Cc1ccc(-c2nc(C(C)C)cc(N3C[C@@H](C)O[C@@H](C)C3)n2)cc1` [Example 97] the “n-fold stimulation at c = 50 μM” value was over 16 n-fold. In the case of `COCCN(CCOC)c1cc(C(C)C)nc(-c2ccc(C)cc2)n1` [Example 98], the “n-fold stimulation at c = 50 μM” value is reported as over 8 n-fold. In the case of `Cc1ccc(-c2nc(C(C)C)cc(N3CCC(C(N)=O)CC3)n2)cc1` [Example 99], the “n-fold stimulation at c = 50 μM” value is reported as over 4 n-fold. In the case of `Cc1ccc(-c2nc(C(C)C)cc(N3CCCCCC3)n2)cc1` [Example 100], the “n-fold stimulation at c = 50 μM” value is reported as over 8 n-fold. In the case of `Clc1ccc(-c2nc(-c3ccccc3)cc(N3CCCCCC3)n2)cc1` [Example 112], the “n-fold stimulation at c = 50 μM” value is reported as over 8 n-fold. For `CC(C)c1cc(NC2CCCC2)nc(-c2ccc(Cl)cc2)n1` [Example 124], the “n-fold stimulation at c = 50 μM” value was over 16 n-fold. With `CC(C)c1cc(N[C@H]2CC[C@H](O)CC2)nc(-c2ccc(Cl)cc2)n1` [Example 125] the “n-fold stimulation at c = 50 μM” value was 32 n-fold. In the case of `CC(C)(C)c1cc(N[C@H]2CC[C@H](O)CC2)nc(-c2ccc(Cl)cc2)n1` [Example 133], the “n-fold stimulation at c = 50 μM” value is reported as over 16 n-fold. For `CC(C)c1cc(NCCCCO)nc(-c2ccc(Cl)cc2)n1` [Example 137], the “n-fold stimulation at c = 50 μM” value was over 16 n-fold.
